Data set [1] concerns the target CDK1/cyclin B (Homo sapiens, UniProt P06493). In words: CDK inhibition assay, CDK1/cyclin B.
Data set [2] addresses CDK2/cyclin E (Homo sapiens, UniProt P24941). Description: CDK inhibition assay, CDK2/cyclin E.
Data set [3] addresses CDK9/cyclin T (Homo sapiens, UniProt P50750). Description: CDK inhibition assay, CDK9/cyclin T.
In data set [4] the test system is p53-responsive reporter pRGCΔfoslacZ in human melanoma cell line Arn8. In words: p53-dependent transcriptional activity, β-galactosidase reporter in Arn8 cells. The note with it: concentration inducing maximum of β-galactosidase activity (p53-responsive reporter).
The subject of data set [5] is human T-lymphoblastoid leukaemic cell line CEM. Description: In vitro cytotoxic activity (Calcein AM, 72 hours), CEM. The settings on record: read-out: Cytotoxicity IC50 CEM.
A short description of data set [6]: In vitro cytotoxic activity (Calcein AM, 72 hours), BJ. The note with it: human, BJ normal fibroblasts.
Data set [7] concerns human erythroleukaemia K562. In words: In vitro cytotoxic activity (Calcein AM, 72 hours), K562. The note with it: K562, 72 h, read-out: Cytotoxicity IC50 K-562.
The test system of data set [8] is breast carcinoma MCF7. Description: In vitro cytotoxic activity (Calcein AM, 72 hours), MCF7. The note with it: Homo sapiens, MCF7, 72 h, read-out: Cytotoxicity IC50 MCF7.
The test system of data set [9] is cervical carcinoma cells HELA. Description: In vitro cytotoxic activity (Calcein AM, 72 hours), HELA. The note with it: Homo sapiens, read-out: Cytotoxicity IC50 HeLa.
The test system of data set [10] is human osteogenic sarcoma HOS. In words: In vitro cytotoxic activity (Calcein AM, 72 hours), HOS. The note with it: read-out: Cytotoxicity IC50 HOS.
For data set [11], the system named is human malignant melanoma G 361. Description: In vitro cytotoxic activity (Calcein AM, 72 hours), G 361. The note with it: G-361, 72 h, read-out: Cytotoxicity IC50 G361.
Data set [12] deals with promyelocytic leukemia HL 60. In words: In vitro cytotoxic activity (Calcein AM, 72 hours), HL 60. The settings on record: Homo sapiens, HL-60, 72 h, read-out: Cytotoxicity IC50 HL60.

pIC50: −log10 of the molar value.

We go through 20 compounds from patent US9023857B2, “Substituted 6-(2-aminobenzylamino)purine derivatives, their use as medicaments and preparations containing these compounds” (Univerzita Palackeho V Olomouci, priority 2009, dated 2015).

CDK1/cyclin B, sequence (P06493 whole entry, species assumed): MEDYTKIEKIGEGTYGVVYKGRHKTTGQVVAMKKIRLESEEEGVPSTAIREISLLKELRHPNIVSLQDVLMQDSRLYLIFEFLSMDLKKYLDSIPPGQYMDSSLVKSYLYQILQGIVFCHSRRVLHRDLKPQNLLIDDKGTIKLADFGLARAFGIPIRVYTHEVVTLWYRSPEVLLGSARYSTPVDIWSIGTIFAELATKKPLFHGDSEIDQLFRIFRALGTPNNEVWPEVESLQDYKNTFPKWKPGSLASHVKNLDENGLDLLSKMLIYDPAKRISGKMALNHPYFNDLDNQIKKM
CDK1/cyclin B, sequence (P14635 whole entry partner, species assumed): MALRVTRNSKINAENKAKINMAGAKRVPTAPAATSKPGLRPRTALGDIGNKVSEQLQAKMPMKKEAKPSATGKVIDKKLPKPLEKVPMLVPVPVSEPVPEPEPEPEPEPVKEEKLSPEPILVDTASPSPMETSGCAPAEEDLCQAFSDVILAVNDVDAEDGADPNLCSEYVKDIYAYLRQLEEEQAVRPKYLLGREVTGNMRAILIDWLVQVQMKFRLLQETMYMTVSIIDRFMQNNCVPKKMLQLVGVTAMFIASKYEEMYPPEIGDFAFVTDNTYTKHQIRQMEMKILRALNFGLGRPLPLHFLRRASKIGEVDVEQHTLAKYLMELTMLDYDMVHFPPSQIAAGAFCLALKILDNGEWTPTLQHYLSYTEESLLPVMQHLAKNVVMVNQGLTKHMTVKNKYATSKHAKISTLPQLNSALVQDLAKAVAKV
CDK9/cyclin T, sequence (P50750 whole entry, species assumed): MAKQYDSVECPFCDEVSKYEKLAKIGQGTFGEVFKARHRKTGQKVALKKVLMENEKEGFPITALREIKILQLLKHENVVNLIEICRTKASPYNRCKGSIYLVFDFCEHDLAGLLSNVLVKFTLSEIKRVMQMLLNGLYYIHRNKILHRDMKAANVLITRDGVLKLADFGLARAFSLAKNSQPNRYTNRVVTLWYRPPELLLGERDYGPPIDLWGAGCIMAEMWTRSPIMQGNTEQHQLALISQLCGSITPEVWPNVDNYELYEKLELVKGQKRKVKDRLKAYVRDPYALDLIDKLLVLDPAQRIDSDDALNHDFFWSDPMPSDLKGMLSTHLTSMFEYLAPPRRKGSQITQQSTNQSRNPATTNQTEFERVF
CDK9/cyclin T, sequence (O60563 whole entry partner, species assumed): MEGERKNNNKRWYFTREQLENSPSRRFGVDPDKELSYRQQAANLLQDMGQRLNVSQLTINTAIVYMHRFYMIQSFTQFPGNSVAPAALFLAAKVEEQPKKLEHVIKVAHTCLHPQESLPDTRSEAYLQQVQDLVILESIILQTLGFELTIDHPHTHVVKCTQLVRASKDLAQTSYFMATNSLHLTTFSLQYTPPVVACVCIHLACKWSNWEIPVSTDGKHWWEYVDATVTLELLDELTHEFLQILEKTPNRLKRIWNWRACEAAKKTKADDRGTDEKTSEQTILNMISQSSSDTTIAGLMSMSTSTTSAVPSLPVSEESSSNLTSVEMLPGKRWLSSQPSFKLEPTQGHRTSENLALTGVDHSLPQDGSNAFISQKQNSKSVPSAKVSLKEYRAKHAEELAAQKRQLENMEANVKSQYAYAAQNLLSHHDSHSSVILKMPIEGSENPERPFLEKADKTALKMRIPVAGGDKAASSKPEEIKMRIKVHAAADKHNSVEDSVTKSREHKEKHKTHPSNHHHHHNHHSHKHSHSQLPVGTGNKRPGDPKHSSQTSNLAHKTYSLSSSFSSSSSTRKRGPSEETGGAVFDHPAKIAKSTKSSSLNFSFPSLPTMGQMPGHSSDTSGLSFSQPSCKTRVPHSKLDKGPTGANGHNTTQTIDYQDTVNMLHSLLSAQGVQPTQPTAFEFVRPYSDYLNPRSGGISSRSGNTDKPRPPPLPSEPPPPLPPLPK

By pIC50 is commonly meant the IC50 on a negative log10 scale, so that one unit is a factor of ten. Turning to `CC(C)C(CO)Nc1nc(NCc2ccccc2N)c2ncn(C(C)C)c2n1` (stereo not drawn) [Compound 107], the negative logarithm of the IC50 (pIC50) in [1] is 7.30; in data set [2], 7.40; in data set [3], 8.70. For the same compound, the “Max. β-Gal. Activtity Conc.” value in [4] was 11 µM.
As usually defined, the IC50 is the concentration that inhibits the measured activity by half. `Cn1cnc2c(NCc3ccccc3N)nc(NC3CCC(N)CC3)nc21` (stereo not drawn) [Compound 2]: the negative logarithm of the IC50 (pIC50) in [5] was 5.05; in data set [1], 6.15; in [2] it was 6.40; in data set [7], 4.44; in data set [3] it was 8.00; in data set [8] it was 5.00. Also, the negative-log IC50 (pIC50) in data set [9] was 4.92; in data set [10] it was 4.70; in [11] it was 4.85; in data set [12], 4.66. Moreover, the IC50 at 72 h in data set [6] is over 167 µM. Besides, the “Max. β-Gal. Activtity Conc.” value in data set [4] is 37 µM.
For `CC(C)n1cnc2c(NCc3ccccc3N)nc(NCC(C)(C)O)nc21` [Compound 108], the pIC50 was 6.30 in data set [5]; 7.70 in data set [1]; 8.10 in data set [2]; 5.52 in data set [7]; 9.40 in data set [3]; 5.92 in data set [8]. For the same compound, the pIC50 in data set [9] was 6.00; in data set [10], 6.00; in [11], 5.72; in data set [12] it was 5.66. Further, in data set [6], the IC50 at 72 h was over 167 µM. The “Max. β-Gal. Activtity Conc.” value in [4] turned out to be 3 µM.
Turning to `CC(O)CNc1nc(NCc2ccccc2N)c2ncn(C(C)C)c2n1` (stereo not drawn) [Compound 104, 1-({6-[(2-aminobenzyl)amino]-9-isopropyl-9H-purin-2-yl}amino)propan-2-ol], the pIC50 was 4.77 in data set [5]; 7.05 in data set [1]; 7.52 in data set [2]; 4.59 in [7]; 8.22 in [3]; 4.81 in [8]. The pIC50 in [9] was 4.82; in [10], 4.51; in data set [11] it was 4.72; in [12], 4.54. For the same compound, the IC50 at 72 h in data set [6] is over 167 µM. Besides, in data set [4], the “Max. β-Gal. Activtity Conc.” value turned out to be 12 µM.
On to `CC(C)C(CO)Nc1nc(NCc2ccccc2N)c2ncn(C)c2n1` (stereo not drawn) [Compound 7], for which the pIC50 in [5] is 6.05; in [1], 7.40; in data set [2], 8.00; in data set [7], 5.30; in [3], 9.00; in [8], 5.82. For the same compound, the pIC50 was 6.00 in [9], 6.10 in data set [10], 5.92 in data set [11] and 5.62 in [12]. Further, the IC50 at 72 h in data set [6] is over 167 µM. For the same compound, in [4], the “Max. β-Gal. Activtity Conc.” value worked out at 25 µM.
Take `CCC(CO)Nc1nc(NCc2cc(Cl)ccc2N)c2ncn(C(C)C)c2n1` (stereo not drawn) [Compound 118]: the pIC50 in data set [5] was 5.49; in data set [1] it was 7.10; in data set [2] it was 8.00; in data set [7], 5.08; in [3], 8.70; in [8], 5.74. Moreover, the pIC50 in data set [9] is 5.80; in [10], 5.12; in data set [11], 5.22; in data set [12] it was 5.27. In addition, the IC50 at 72 h in [6] is over 167 µM. Besides, the “Max. β-Gal. Activtity Conc.” value in data set [4] is 18 µM.
For `CC(Nc1nc(NCc2ccccc2N)c2ncn(C)c2n1)C(C)(C)O` (stereo not drawn) [Compound 9], in data set [4], the “Max. β-Gal. Activtity Conc.” value was found to be 25 µM.
Turning to `CCC(Nc1nc(NCc2ccccc2N)c2ncn(C(C)C)c2n1)C(C)(C)O` (stereo not drawn) [Compound 113], in [4], the “Max. β-Gal. Activtity Conc.” value is 16 µM.
As for `CC(C)n1cnc2c(NCc3ccccc3)nc(NCC(C)(C)O)nc21` [Compound A2148], the pIC50 is 4.29 in data set [5]; 6.22 in data set [1]; 6.40 in [2]; 4.33 in [7]; 6.30 in data set [3]; 4.19 in data set [8]. Besides, the pIC50 in data set [11] is 4.18.
Regarding `CCC(CO)Nc1nc(NCc2ccccc2N)c2ncn(CC)c2n1` (stereo not drawn) [Compound 62], the pIC50 in data set [5] is 5.62; in data set [1], 7.15; in data set [2] it was 8.00; in data set [7], 5.27; in [3], 9.15; in data set [8], 5.74. In addition, the pIC50 in [9] is 5.80; in data set [10], 5.49; in data set [11], 5.60; in data set [12] it was 5.17. Also, the IC50 at 72 h in data set [6] is over 167 µM. Besides, the “Max. β-Gal. Activtity Conc.” value in data set [4] was found to be 7 µM.
For the compound `CC(C)n1cnc2c(NCc3cc(F)ccc3N)nc(NC3CCCCC3N)nc21` (stereo not drawn) [Compound 125], the negative-log IC50 (pIC50) in [5] was 5.30; in data set [1], 6.40; in [2], 7.00; in data set [7], 5.00; in data set [3], 8.10; in data set [8] it was 5.22.
As to `CC(C)n1cnc2c(NCc3ccccc3)nc(NC3CCC(N)CC3)nc21` (stereo not drawn) [Compound A2141], the pIC50 in data set [5] was 4.48; in [1], 6.40; in [2], 6.30; in data set [7] it was 4.33; in data set [3], 6.15; in data set [8], 4.48. For the same compound, the pIC50 in [9] is 4.55; in data set [10], 4.55; in data set [11], 4.57; in [12], 4.33. The IC50 at 72 h in data set [6] was over 167 µM.
For the compound `CCC(Nc1nc(NCc2ccccc2N)c2ncn(C)c2n1)C(C)(C)O` (stereo not drawn) [Compound 13], the “Max. β-Gal. Activtity Conc.” value in data set [4] was 36 µM.
As to `Cn1cnc2c(NCc3ccccc3)nc(NC3CCCCC3N)nc21` (stereo not drawn) [Compound A1140], the pIC50 in data set [5] was 4.51; in data set [1], 5.64; in [2] it was 5.57; in data set [7], 4.07; in [3], 5.60; in data set [8] it was 4.28. The pIC50 in data set [9] is 4.30; in [10], 4.01; in [11], 4.08; in data set [12], 4.16. In addition, the IC50 at 72 h in [6] was over 167 µM.
`CCCCCCCNc1nc(NCc2ccccc2)c2ncn(C(C)C)c2n1` [Compound A218]: the pIC50 is 4.43 in data set [5]; 3.80 in data set [1]; 3.78 in [2]; 4.52 in data set [7]; 3.82 in [3]; 4.37 in [8]. The negative-log IC50 (pIC50) in [9] is 4.19; in [10], 3.98; in [11], 4.08; in data set [12] it was 4.04. For the same compound, in data set [6], the IC50 at 72 h is over 167 µM.
Take `CC(C)n1cnc2c(NCc3ccccc3N)nc(NC(C)C(C)(C)O)nc21` (stereo not drawn) [Compound 109]: the “Max. β-Gal. Activtity Conc.” value in data set [4] was determined as 6 µM.
`CC(C)n1cnc2c(NCc3ccccc3N)nc(NCC(C)C(C)(C)O)nc21` (stereo not drawn) [Compound 112]: the “Max. β-Gal. Activtity Conc.” value in data set [4] was found to be 35 µM.
As for `CC[C@H](CO)Nc1nc(NCc2ccccc2)c2ncn(C(C)C)c2n1` [RO], the pIC50 in data set [5] is 4.85; in [7] it was 4.28; in data set [8] it was 4.85; in data set [9] it was 4.66; in data set [10], 4.62; in data set [11], 4.66. In data set [12], the pIC50 was 4.46. Further, the IC50 at 72 h in [6] is over 167 µM. In addition, the “Max. β-Gal. Activtity Conc.” value in data set [4] came to 50 µM.
As for `CC(CC(C)(C)O)Nc1nc(NCc2ccccc2N)c2ncn(C(C)C)c2n1` (stereo not drawn) [Compound 111], the “Max. β-Gal. Activtity Conc.” value in [4] came out at 32 µM.
Same read-out and setting: as for `CCCCCCCNc1nc(NCc2ccccc2N)c2ncn(C(C)C)c2n1` [Compound 106, N-6-(2-aminobenzyl)-N-2-heptyl-9-isopropyl-9H-purin-2,6-diamine], the figure is 41 µM.
